# From patent US20230039836A1, “AROMATIC SULPHONAMIDES DERIVATIVES THAT INHIBITS PDI A3, THEIR SYNTHESIS AND USE” (Uniwersytet Jagiellonski, priority 2020, published 2023)
# “And” between values parts separate entries of the source, which are not always exact repeats. Equal values may be shown once. Read-outs that look alike come from different tables or passages of the source.
# Legend:
# Caco-2 = experiment: Sulforhodamine B antiproliferative assay, 72 h; format: cell-based, human; settings: normal (21% of oxygen), 72-hour exposition
# HT-29 = experiment: Sulforhodamine B antiproliferative assay, 72 h; format: cell-based, human; settings: normal (21% of oxygen), 72-hour exposition
# Method: (§1) Anticancer activity of PDI A1-inhibitors has been also tested in vitro in antiproliferative essay in normoxic and hypoxic conditions as well in estrogen-stimulated cancer cells. In the experiment, cells were seeded on 96-well plates (Sarstedt, Germany) in appropriate culture medium at a density of 10^5 cells/mL 24 h before adding the tested compounds. Cells were treated with each compound in four concentrations in the range 0.1-100 ug/mL. […] After 72 h of compound treatment at 37° C., 5 % CO2 humid atmosphere and in wo different oxygen level conditions: 21% - normal and <1% - hypoxia. In some experiments, the MDA-MB-231 and MCF-7 cells were seeded with or without 200 nM estradiol and after 24 h the tested compounds were added. A previously described sulforhodamine B antiproliferative assay was used with minor modifications (Skehan P et al., 1990). Briefly, cells were fixed with 50 µL/well of 50% (w/v) trichloroacetic acid (Avantor Performance Materials, Gliwice, Poland). After 1 h incubation, plates were washed several times with tap water and 50 µL of 0.4% (w/v) solution of sulforhodamine B (Sigma-Aldrich, Germany) in 1% (v/v) acetic acid (Avantor Performance Materials, Gliwice, Poland) was added to each well. After 30 min incubation at room temperature, unbound dye was washed out with 1% (v/v) acetic acid, whereas bound dye was solubilized with 10 mM unbuffered TRIS (Avantor Performance Materials, Gliwice, Poland) solution. The entire procedure was performed using a BioTek EL-406 washing station (BioTek Instruments, USA). After additional 30 min, absorbance was read using a Biotek Hybrid H4 reader (BioTek Instruments, USA) at 540 nm wavelength. MTT assay was used alternatively for HL-60 cell line and in the experiment in which estrogens are added (specified in the table legend). Absorbance was measured using a Biotek Hybrid H4 reader at 570 nm wavelength for MTT assay.
# (§2) Compounds at each concentration were tested in triplicate in a single experiment and each experiment was repeated at least three times independently.
# (§3) Results of in vitro antiproliferative effects are shown in Table 3 and Table 4 and are presented as mean IC50 ± SD calculated using the Prolab-3 system based on Cheburator 0.4 software.
# MDA-MB-231 = experiment: Sulforhodamine B antiproliferative assay, 72 h, normal and hypoxia; format: cell-based, human; settings: 72-hour exposition; for IC50: Homo sapiens, MDA-MB-231
# Method: as §1, §2, §3
# MCF-7 = experiment: as above; format: cell-based, human; settings: 72-hour exposition; for IC50: Homo sapiens, MCF7
# Method: as §1, §2, §3
# PDI A1 = molecular target: T1, PDI A1 (Homo sapiens, UniProt P07237); experiment: Insulin turbidometric assay, inhibition of PDI A1; format: biochemical; settings: insulin reduction, turbidity at 650 nm, 60 min incubation at 37° C.; read-out: Inhibition of PDI A1 (EC 50)
# T1 construct: purchased Mybiosource; host or cells: E. coli
# Method: The inhibitory effects compounds of invention on activity of PDI A1 was assess based on the insulin turbidometric assay. Enzymatic activity of PDIA1 was confirmed by measuring the turbidity increase at 650 nm due to insulin reduction. The assay mixture was prepared by addition 10 ug/ml PDIA1 (E.coli recombinant protein; Mybiosource), 0.1 mM phosphate buffer (pH7.6), 1 mM EDTA, 0.087 mM DTT and with or without tested compound and was incubated for 60 min, at 37° C. Reaction was started by addition insulin and DTT. Final concentration of insulin and DTT in assay mixture was 0.15 mM and 0.174 mM, respectively. Turbidity was detected at 650 nm against reference samples without PDI A1s. The measurements were performed at 650 nm using 120-s recordings.
# [1] = tested on: Lewis Lung Carcinoma (LLC); experiment: Murine model of Lewis Lung Carcinoma; format: in vivo, mice
# Method: To confirm anticancer activity of selected compounds of invention, PDI A1-inhibitors in vivo, selected compounds of invention were tested in the murine model of Lewis Lung Carcinoma (LLC). The Lewis Lung Carcinoma (LLC) cell line was obtained from the ATCC collection and was cultured in a humidified atmosphere of 5% CO2 at 37° using Dulbecco’s modified Eagle’s medium (DMEM) that contained 10% bovine serum (Sigma). Female (6-8 weeks old) C57BL/6 mice (purchased from Envigo RMS. BV., Nederland) were acclimated for one week and were fed with animal chow and water ad libitum. The C57BL/6 mice were injected s.c. with 0.5 × 10^5 LLC cells per mice in 100 µL PBS. Compounds were dissolved in DMSO and then 0.9% NaCl (DMSO final concentration 1%) were added. In each treatment group, i.p. injections of 100 µl compound were started on 1 day after tumor inoculation. Control animals injected with equal volume of 0.9% NaCl with 1% DMSO administered in the same schedule as other groups. Tumor larger radius (a) and smaller radius (b) were measured by calipers. The tumor volume (Tv) was calculated according the following formulaTv = V=4 • ab2/3. The mice in control group were sacrificed 17 days after tumor establishment. Tumor tissues were dissected, weighed and frozen in OCT compound.
# [2] = C57BL/6 mice, LLC s.c., 50 mg/kg i.p., 5 animals
# [3] = C57BL/6 mice, LLC s.c., 50 mg/kg i.p., single animals, 50 mg/kg
# T1 sequence (P07237 18-508, species assumed): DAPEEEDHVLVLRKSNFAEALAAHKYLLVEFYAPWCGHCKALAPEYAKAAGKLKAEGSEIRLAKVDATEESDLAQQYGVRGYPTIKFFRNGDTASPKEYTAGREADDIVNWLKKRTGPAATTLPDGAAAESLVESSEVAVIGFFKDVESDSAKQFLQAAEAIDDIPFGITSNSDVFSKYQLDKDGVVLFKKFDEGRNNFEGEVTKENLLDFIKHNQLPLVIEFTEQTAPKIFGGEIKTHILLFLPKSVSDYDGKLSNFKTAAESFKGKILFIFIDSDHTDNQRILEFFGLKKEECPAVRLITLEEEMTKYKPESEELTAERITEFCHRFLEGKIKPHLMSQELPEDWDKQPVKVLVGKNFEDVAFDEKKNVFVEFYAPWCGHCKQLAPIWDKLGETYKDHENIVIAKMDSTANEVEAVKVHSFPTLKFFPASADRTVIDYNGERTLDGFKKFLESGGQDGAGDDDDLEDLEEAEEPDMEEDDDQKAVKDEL
smiles,measurement,setting,value
"COc1ccc(N2C(=O)/C(=C\c3ccc([N+](=O)[O-])s3)SC2=S)cc1 [CCF642, reference compound]",IC50 [µg/ml] Caco-2 normal,Caco-2,0.4 ± 0.1 µg/mL
same,IC50 [µg/ml] HT-29 normal,HT-29,0.4 ± 0.05 µg/mL
same,IC50 [µg/ml] MDA-MB-231 hypoxia,MDA-MB-231; hypoxia (<1% of oxygen),0.3 ± 0.2 µg/mL
same,IC50 [µg/ml] MDA-MB-231 normal,MDA-MB-231; normal (21% of oxygen),0.3 ± 0.1 µg/mL
same,IC50 [µg/ml] MCF-7 hypoxia,MCF-7; hypoxia (<1% of oxygen),0.6 ± 0.6 µg/mL
same,IC50 [µg/ml] MCF-7 normal,MCF-7; normal (21% of oxygen),0.7 ± 0.5 µg/mL
"COC(=O)C1CN1S(=O)(=O)c1ccc(C)cc1 (stereo not drawn) [Compound C-3161, Methyl 1-(p-tolylsulfonyl)aziridine-2-carboxylate]",EC50,PDI A1,5 µM
same,IC50,"Caco-2; Homo sapiens, Caco-2",3.5 ± 0.3 µg/mL
same,IC50,"HT-29; Homo sapiens, HT-29",28.4 ± 5 µg/mL
same,"Tumor volume average±stdev, day 10",[1]; [2],105±144 mm3
same,"Tumor volume average±stdev, day 12",[1]; [2],172±240 mm3
same,"Tumor volume average±stdev, day 14",[1]; [2],345±377 mm3
same,"Tumor volume average±stdev, day 16",[1]; [2],380±446 mm3
same,"Tumor volume average±stdev, day 17",[1]; [2],368±393 mm3
same,"Individual tumor volumes, day 10",[1]; [3],258 mm3 and 0 mm3 (3×) and 266 mm3
same,"Individual tumor volumes, day 12",[1]; [3],496 mm3 and 0 mm3 (3×) and 365 mm3
same,"Individual tumor volumes, day 14",[1]; [3],829 mm3 and 254 mm3 and 0 mm3 (2×) and 642 mm3
same,"Individual tumor volumes, day 16",[1]; [3],980 mm3 and 199 mm3 and 0 mm3 (2×) and 719 mm3
same,"Individual tumor volumes, day 17",[1]; [3],946 mm3 and 476 mm3 and 0 mm3 (2×) and 419 mm3
same,Anti-cancer activity in vivo,"[1]; LLC model, Tables 6 and 7",possess anti-cancer activity in vivo
same,IC50,"MDA-MB-231; hypoxia (<1% of oxygen), read-out: IC50 [µg/ml] MDA-MB-231 hypoxia",11.3 ± 10.6 µg/mL
same,IC50,"MDA-MB-231; normal (21% of oxygen), read-out: IC50 [µg/ml] MDA-MB-231 normal",9.9 ± 8.2 µg/mL
same,IC50,"MCF-7; hypoxia (<1% of oxygen), read-out: IC50 [µg/ml] MCF-7 hypoxia",3.6 ± 0.3 µg/mL
same,IC50,"MCF-7; normal (21% of oxygen), read-out: IC50 [µg/ml] MCF-7 normal",3.6 ± 0.3 µg/mL
